# Experimental data: US20250127790A1, “COMBINATION THERAPY USING VPS34 INHIBITORS” (Deciphera Pharmaceuticals, LLC, priority 2021, published 2025)
# Assays:
# [1] = test system: THP-1 dual reporter cells; assay: THP-1 dual reporter assay (ISRE and NF-κB promoter activity); assay type: cell-based, human; conditions: 5 μg/mL ADU-S100, 2 μM Compound 1 or 2, overnight
# Experimental: THP1-Dual™ Cells lines were purchased from InvivoGen (WT (thpd-nfis) and STING-KO (thpd-kostg)) and cultured as recommended by manufacturer: in RPMI media (Gibco 22400-071) supplemented with 10% heat-inactivated Fetal Bovine Serum (FBS) (Gibco A38400-02) and 1× Pen-Strep-Glutamine (Gibco 10378-016). Cells were treated with selective antibiotic every other passage using 100 μg/ml Normocin™ (InvivoGen ant-nr-1), 10 μg/ml of blasticidin (InvivoGen ant-bl-05) and 100 μg/ml of Zeocin™ (InvivoGen ant-zn-05). THP1-Dual™ Cells (wild-type or STING-KO) were seeded at 1.5×10^5 cells/well in 96-well plates. Cells were treated with DMSO, 5 μg/mL ADU-S100, 2 μM Compound 1 or 2 or the combinations overnight. The next day, 10 μL of the media from the treated cells were mixed with 50 μL of QUANTI-Luc™ Gold (Invivogen rep-qlcg2) in a white 96-well plate (Thermo Scientific 9502887) to measure the interferon-sensitive response element (ISRE) promoter activity through Luciferase signal using a plate reader. For measuring NF-κB promoter activity, 10 μL of the media from the treated cells were mixed with 90 μL of QUANTI-Blue™ (Invivogen rep-qbs3) in white-96-well plates (Corning-Costar 3610), then incubated at 37° C. for one hour. The signal was then measured using a plate reader with detection at 640 nm wavelength.
# A-498 cells = assay: Western blot, STAT1 phosphorylation in A-498 cells; assay type: cell-based, human
# Experimental: A-498 cells were seeded at 1.5×10^5 cells/well in 6-well plates and cultured overnight. Cells were treated with 10 μg/mL mouse monoclonal antibody to human interferon α/β receptor chain 2 (α-IFNAR2) (clone: MMHAR-2, #21385-1, PBL Assay Science) or 10 μg/mL mouse IgG2a isotype control antibody (clone: eBM2a, #16-4724-81, Thermo Fisher Scientific). After 1 h, DMSO or 2 μM Compound 1 was added and cells were incubated for another 24 h. […] A-498 cells were washed in PBS and lysed in RIPA buffer (50 mM Tris HCl pH=7.4, 150 mM NaCl, 1% Triton X-100, 0.5% Na-deoxycholate, 0.1% SDS) containing protease inhibitor cocktail (#11836170001, Roche), and phosphatase inhibitor (#11836170001, Roche) for 10 min at 4° C. After centrifugation at 15000 rpm for 10 min at 4° C., the supernatant was obtained, and protein concentration was quantified using BCA assay (#23225, Thermo Fisher). Equal amounts were mixed with 0.1 M DTT and LDS Sample Buffer (#84788, Thermo Fisher), heated for 5 min at 90° C. before loading onto 4-12% Bis-Tris gels. Proteins were transferred to nitrocellulose membranes. Membranes were blocked in 5% non-fat dry milk in TBS with 0.05% Tween (TBS-T) for 1 h at RT, washed in TBS-T, and probed with primary antibodies shaking overnight at 4° C. After washing in TBS-T, membranes were incubated with IRDye 800CW goat anti-rabbit or IRDye 680RD donkey anti-mouse IgG (H+L) (#926-32211 and #926-68072, respectively, LI-COR, 1:10,000 dilution) secondary antibody in Intercept blocking buffer (#927-60001, LI-COR) for 1 h at RT. After washing in TBS-T, membranes were imaged using the Odyssey CLx (LI-COR). Band intensities were quantified using Image Studio Lite software version 5.2.5 (LI-COR).
# B16-F10 tumors = assay: In vivo study of B16-F10 tumors; design: species or system C57BI/6 mice
# Experimental: B16-F10 tumor-bearing C57BI/6 mice were treated with vehicle or 20 mg/kg Compound 1 p.o. (daily from day 7-16) in combination with PBS or 10 μg ADU-S100 i.t. (on days 9, 11, 13, and 15).
smiles,measurement,setting,value
"Nc1ncnc2c1ncn2[C@@H]1O[C@@H]2COP(=O)([S-])O[C@@H]3[C@H](O)[C@@H](COP([O-])(=S)O[C@H]2[C@H]1O)O[C@H]3n1cnc2c(N)ncnc21.[Na+].[Na+] (stereo partly shown) [ADU-S100, reference compound]",ISRE activity (QUANTI-Luc),[1],stimulates
same,NFκB activity (QUANTI-Blue),[1],stimulates
"C[C@@H]1COCCN1c1cc(N2CCCC[C@@H]2C(F)(F)F)[nH]c(=O)c1 [Compound 1, 4-((R)-3-methylmorpholino)-6-((R)-2-(trifluoromethyl)piperidin-1-yl)pyridin-2(1H)-one]",phosphorylation of STAT1,"A-498 cells; 2 μM Compound 1, 24 h",increased
same,total levels of STAT1,"A-498 cells; 2 μM Compound 1, 24 h",did not alter
same,phosphorylation of STAT1 with addition of α-IFNAR2,"A-498 cells; 10 μg/mL α-IFNAR2 antibody 1 h before 2 μM Compound 1, 24 h",inhibited
same,"sensitization of B16-F10 tumors to STING agonist treatment (tumor growth, survival)","B16-F10 tumors; C57BI/6 mice, 20 mg/kg Compound 1 p.o. daily day 7-16 with 10 μg ADU-S100 i.t. on days 9, 11, 13, 15",sensitized
same,mice survival,"B16-F10 tumors; Renca and B16-F10 tumor-bearing mice, Compound 1 with STING agonist treatment",significantly improved
